Experimental data from US20180021277A1, “ANTI-VIRULENCE COMPOSITIONS AND METHODS” (priority 2012, published 2018).
In brackets after ≈: the same amount, converted by molar mass.

Assays:
AgrA-P3 complex = AgrA-P3 complex (Staphylococcus aureus, UniProt P0A0I7); test: Electrophoretic mobility shift assay, AgrA with P3 promoter DNA; settings: 1 nM P3 DNA, 2 μM AgrA
MRSA USA300 [1] = format: in vivo, mice; settings: for improvement of wound healing compared to untreated control: 20 mg/kg on the wound once a day for seven days, wound area day 8; for bacterial burden of the wound vs untreated control: 20 mg/kg once a day for seven days; for bacterial burden of the wound vs untreated control / tissue burden of the wound, average log CFUs ± standard deviation: day 8; for tissue burden of the wound, average log CFUs ± standard deviation: topical twice a day for seven days, cephalothin 30 mg/kg, F19 20 mg/kg, vancomycin 30 mg/kg
[2] = Survival of insect larvae given compound in the absence of bacteria; format: in vivo, Galleria Mellonella; settings: after 84 h
[3] = tested on: Bacillus anthracis Ames strain; format: cell-based
MRSA USA300 [4] = test: microbe, parasite or virus in culture; format: cell-based, Staphylococcus aureus; settings: for MIC: Staphylococcus aureus, read-out: minimum inhibitory concentration (MIC), With F19 (1 μg/mL)
MRSE Q-15 = format: cell-based, Staphylococcus epidermidis
MRSA USA300 [5] = test: Murine MRSA bacteremia/sepsis model
Streptococcus pyogenes = format: cell-based

Chain of AgrA-P3 complex (P0A0I7 whole entry, one chain of several): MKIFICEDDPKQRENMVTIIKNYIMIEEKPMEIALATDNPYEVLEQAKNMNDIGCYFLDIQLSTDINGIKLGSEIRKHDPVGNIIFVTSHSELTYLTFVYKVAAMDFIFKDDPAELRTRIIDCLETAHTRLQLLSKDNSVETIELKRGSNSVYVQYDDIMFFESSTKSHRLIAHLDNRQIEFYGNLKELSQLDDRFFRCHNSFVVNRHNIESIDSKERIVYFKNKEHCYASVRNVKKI

CCCCCCc1cc(C(=O)COc2cccc(F)c2)c(O)cc1O [4f-1]
inhibition of formation of the AgrA-promoter P3 complex (EMSA) (AgrA-P3 complex; listed as F1): inhibit the formation of the AgrA-promoter P3 complex | improvement of wound healing compared to untreated control (MRSA USA300 [1]): 46.6% | bacterial burden of the wound vs untreated control (MRSA USA300 [1]): no significant difference in the bacterial burden

CCCCCCc1cc(C(=O)COc2ccc(F)cc2F)c(O)cc1O [4f-12]
survival of larvae in the absence of bacteria [2]: 80% | inhibition of formation of the AgrA-promoter P3 complex (EMSA) (AgrA-P3 complex): inhibit binding of AgrA to its cognate DNA | inhibition of formation of the AgrA-promoter P3 complex (EMSA) (AgrA-P3 complex; listed as F12): inhibit the formation of the AgrA-promoter P3 complex | improvement of wound healing compared to untreated control (MRSA USA300 [1]): 79.4% | bacterial burden of the wound vs untreated control (MRSA USA300 [1]): no significant difference in the bacterial burden

C[C@H]1[C@H](NC(=O)/C(=N\OC(C)(C)C(=O)O)c2csc(N)n2)C(=O)N1S(=O)(=O)O [Aztreonam]
minimum inhibitory concentration (MIC), antibiotic Alone [3]: 256 | minimum inhibitory concentration (MIC), With F19 (10 μg/mL) [3]: <0.1

CC(C)(O/N=C(\C(=O)N[C@@H]1C(=O)N2C(C(=O)[O-])=C(C[n+]3ccccc3)CS[C@H]12)c1csc(N)n1)C(=O)O [Cefazidime]
minimum inhibitory concentration (MIC), antibiotic Alone [3]: 32 | minimum inhibitory concentration (MIC), With F19 (10 μg/mL) [3]: <0.1

CC(=O)OCC1=C(C(=O)O)N2C(=O)[C@@H](NC(=O)Cc3cccs3)[C@H]2SC1 [Cephalothin, cephalothin]
minimum inhibitory concentration (MIC), antibiotic Alone (MRSA USA300 [4]; MRSA USA300): 58 mg/L (≈ 146 µM) | MIC (MRSA USA300 [4]): 2 mg/L (≈ 5.04 µM) | tissue burden of the wound, average log CFUs ± standard deviation (MRSA USA300 [1]): 7.54±0.4 log CFU | minimum inhibitory concentration (MIC), antibiotic Alone (MRSE Q-15): 64 | minimum inhibitory concentration (MIC), With F19 (1 μg/mL) (MRSE Q-15): 3 | bacterial burden in blood compared to F19-treated animals (MRSA USA300 [5]; 30 mg/kg IP twice daily): approximately the same bacterial burden levels

CCOc1ccc2ccccc2c1C(=O)N[C@@H]1C(=O)N2[C@@H]1SC(C)(C)[C@@H]2C(=O)O [Nafcillin]
minimum inhibitory concentration (MIC), antibiotic Alone (Streptococcus pyogenes; alone): 25 | minimum inhibitory concentration (MIC), With F19 (1 μg/mL) (Streptococcus pyogenes; with F19 1 μg/mL): 10 | minimum inhibitory concentration (MIC), antibiotic Alone (MRSA USA300 [4]; MRSA USA300): 60 mg/L (≈ 145 µM) | MIC (MRSA USA300 [4]): 1 mg/L (≈ 2.41 µM)

CN[C@H](CC(C)C)C(=O)N[C@H]1C(=O)N[C@@H](CC(N)=O)C(=O)N[C@H]2C(=O)N[C@H]3C(=O)N[C@H](C(=O)N[C@H](C(=O)O)c4cc(O)cc(O)c4-c4cc3ccc4O)[C@H](O)c3ccc(c(Cl)c3)Oc3cc2cc(c3O[C@@H]2O[C@H](CO)[C@@H](O)[C@H](O)[C@H]2O[C@H]2C[C@](C)(N)[C@H](O)[C@H](C)O2)Oc2ccc(cc2Cl)[C@H]1O [Vancomycin, vancomycin]
tissue burden of the wound, average log CFUs ± standard deviation (MRSA USA300 [1]): 6.96±0.3 log CFU | bacterial load in blood compared to the F19-cephalothin treatment (MRSA USA300 [5]; 30 mg/kg IP twice daily): almost two orders of magnitude lower | surviving mice (of ten per group) (MRSA USA300 [5]; 30 mg/kg IP twice daily for 7 days, lethal dose 1.6×10^10 CFUs): all survived | mean bacterial load in blood compared to vehicle-treated animals (MRSA USA300 [5]; 30 mg/kg IP twice daily, day 6): four orders of magnitude lower

Penicillin
minimum inhibitory concentration (MIC), antibiotic Alone (MRSA USA300 [4]; MRSA USA300): 135 mg/L | minimum inhibitory concentration (MIC), With F19 (1 μg/mL) (MRSA USA300 [4]; MRSA USA300, with F19 1 μg/mL): 18 mg/L | minimum inhibitory concentration (MIC), antibiotic Alone (MRSE Q-15): 174 | minimum inhibitory concentration (MIC), With F19 (1 μg/mL) (MRSE Q-15): 34
